Assay: Sensory evaluation test of miso sample solutions without broth, experts' panel of six adult persons (Example 2)
Set-up: species or system human
Settings: converted sodium chloride concentration about 0.625%, scale with 7 gradations, from 0 to 7
Excerpt: A scale with 7 gradations, from 0 to 7, was used to evaluate the “strength of saltiness” and “overall strength of miso soup flavor”.

Structure (SMILES): N[C@@H](CCC(=O)[O-])C(=O)[O-].[Mg+2] [MDG, magnesium glutamate]
- Strength of saltiness: improved

From patent US20110151089A1, “COMPOSITION CONTAINING MAGNESIUM GLUTAMATE WHICH CAN ENHANCE THE SALTINESS OF FOODS AND DRINKS” (priority 2008, published 2011)
